From ChEMBL document CHEMBL4270567, “Multi-target-directed ligands for treating Alzheimer's disease: Butyrylcholinesterase inhibitors displaying antioxidant and neuroprotective activities” (Eur J Med Chem, 2018)
Activity calls are given as the source filed them. The rule behind the calls is not given here.

Tests used:
[1] = biological target: T1, Cholinesterase (Homo sapiens, UniProt P06276); assay: Inhibition of human recombinant BChE using butyrylthiocholine as substrate preincubated for 300 secs followed by substrate addition and measured for 1 min by Ellman's assay
[2] = Binding affinity to Cu2+ assessed as decrease in hydroxyl radical formation at 40 uM by CCA ascorbate assay
[3] = biological target: Acetylcholinesterase (AChE) (Homo sapiens, UniProt P22303); assay: in vitro; details: human AChE enzyme, probe acetylthiocholine iodide
Description: Inhibition of human AChE using acetylthiocholine iodide as substrate assessed as residual activity at 10 uM preincubated for 5 mins followed by substrate addition and measured for 1 min by Ellman's assay relative to control

[4] = biological target: T1, Cholinesterase
Description: Inhibition of human BChE using butyrylthiocholine iodide as substrate preincubated for 5 mins followed by substrate addition and measured for 1 min by Ellman's assay

[5] = Metal chelating activity of the compound assessed as Cu2+-compound complex formation at 30 uM after 5 mins by UV-vis spectrophotometric analysis
[6] = Metal chelating activity of the compound assessed as Zn2+-compound complex formation at 30 uM after 5 mins by UV-vis spectrophotometric analysis
[7] = Metal chelating activity of the compound assessed as Co2+-compound complex formation at 30 uM after 5 mins by UV-vis spectrophotometric analysis
[8] = Metal chelating activity of the compound assessed as Ni2+-compound complex formation at 30 uM after 5 mins by UV-vis spectrophotometric analysis
[9] = Metal chelating activity of the compound assessed as Al3+-compound complex formation at 30 uM after 5 mins by UV-vis spectrophotometric analysis
[10] = Metal chelating activity of the compound assessed as Ca2+-compound complex formation at 30 uM after 5 mins by UV-vis spectrophotometric analysis
[11] = Cytotoxicity against human SH-SY5Y cells after 48 hrs by MTS assay; type: cell-based; details: read-out: LD50
[12] = Metal chelating activity of the compound assessed as Mg2+-compound complex formation at 30 uM after 5 mins by UV-vis spectrophotometric analysis
[13] = Permeability across apical to basolateral side in human Caco2 cells at 100 uM after 20 mins by HPLC-UV analysis; type: ADME, cell-based; details: Caco-2
[14] = Metal chelating activity of the compound assessed as Mn2+-compound complex formation at 30 uM after 5 mins by UV-vis spectrophotometric analysis
[15] = Metal chelating activity of the compound assessed as Fe2+-compound complex formation at 30 uM after 5 mins by UV-vis spectrophotometric analysis
[16] = Permeability across basolateral to apical side in human Caco2 cells at 100 uM after 20 mins by HPLC-UV analysis; type: ADME, cell-based; details: Caco-2
[17] = test system: SH-SY5Y; assay: Inhibition of H2O2-induced ROS generation in human SH-SY5Y cells at 5 uM preincubated for 30 mins followed by H2O2 addition and measured after 90 mins by DCFH-DA staining-based fluorescence assay; type: functional, cell-based
[18] = test system: SH-SY5Y; assay: Neuroprotection activity against amyloid beta (1 to 42)-induced toxicity in human SH-SY5Y cells at 1 uM preincubated with amyloid beta (1 to 42) for 24 hrs followed by cell addition and measured after 48 hrs by MTS assay; type: functional, cell-based
[19] = test system: human recombinant BChE; assay: Selectivity index, ratio of LD50 for human SH-SY5Y cells to IC50 for human recombinant BChE; type: toxicity; details: read-out: Ratio LD50/IC50
[20] = biological target: T1, Cholinesterase; assay: Competitive inhibition of human BChE using butyrylthiocholine iodide as substrate preincubated for 5 mins followed by substrate addition and measured for 1 min by Lineweaver Burk plot analysis
[21] = Efflux ratio of permeability from basolateral to apical over apical to basolateral side in human Caco2 cells at 100 uM after 20 mins by HPLC-UV analysis; type: ADME, cell-based; details: Caco-2

T1 sequence (P06276 whole entry): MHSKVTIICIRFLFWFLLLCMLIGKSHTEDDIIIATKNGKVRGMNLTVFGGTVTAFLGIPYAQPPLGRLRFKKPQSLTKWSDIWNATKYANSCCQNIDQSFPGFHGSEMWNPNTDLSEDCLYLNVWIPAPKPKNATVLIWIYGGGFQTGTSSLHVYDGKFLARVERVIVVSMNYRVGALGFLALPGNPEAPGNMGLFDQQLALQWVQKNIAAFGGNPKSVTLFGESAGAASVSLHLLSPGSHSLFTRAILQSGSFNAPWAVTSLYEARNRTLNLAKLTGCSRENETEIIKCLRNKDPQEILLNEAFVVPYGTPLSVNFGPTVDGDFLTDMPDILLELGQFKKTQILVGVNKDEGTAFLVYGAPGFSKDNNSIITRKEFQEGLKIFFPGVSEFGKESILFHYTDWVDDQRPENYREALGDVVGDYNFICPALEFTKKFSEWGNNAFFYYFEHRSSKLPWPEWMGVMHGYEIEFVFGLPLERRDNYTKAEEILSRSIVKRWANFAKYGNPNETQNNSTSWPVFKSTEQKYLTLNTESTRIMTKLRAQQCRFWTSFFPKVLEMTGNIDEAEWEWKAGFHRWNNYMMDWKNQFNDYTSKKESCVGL
Acetylcholinesterase (AChE), sequence (P22303 whole entry): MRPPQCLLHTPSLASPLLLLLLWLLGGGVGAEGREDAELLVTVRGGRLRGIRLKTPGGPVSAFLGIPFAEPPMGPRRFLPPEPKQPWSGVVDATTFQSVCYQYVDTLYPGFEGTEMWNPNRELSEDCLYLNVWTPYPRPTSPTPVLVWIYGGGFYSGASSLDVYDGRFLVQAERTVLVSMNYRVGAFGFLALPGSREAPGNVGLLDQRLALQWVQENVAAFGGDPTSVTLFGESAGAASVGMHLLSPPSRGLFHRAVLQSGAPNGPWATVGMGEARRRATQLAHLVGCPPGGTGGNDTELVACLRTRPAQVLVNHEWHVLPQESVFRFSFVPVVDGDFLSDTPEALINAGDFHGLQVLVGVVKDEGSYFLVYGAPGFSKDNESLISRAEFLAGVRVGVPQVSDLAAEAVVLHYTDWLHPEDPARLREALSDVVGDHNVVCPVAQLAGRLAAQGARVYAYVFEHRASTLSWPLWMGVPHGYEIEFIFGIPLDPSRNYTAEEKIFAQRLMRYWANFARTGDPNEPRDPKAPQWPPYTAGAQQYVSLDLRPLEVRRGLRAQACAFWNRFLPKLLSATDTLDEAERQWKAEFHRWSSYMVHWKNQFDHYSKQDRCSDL

| Compound | activity at 1 min, 10 µM [3] [%] | IC50 [4] [nM] | other results |
| --- | --- | --- | --- |
| CC(=O)NC1=NN(C(C)=O)C(C)(c2ccccc2)S1 (centres undefined) |  |  | IC50 [1]: 4.9 nM |
| Oc1cccc2cccnc12 |  |  | Activity [2]: Active |
| CN(C)CCN(CC1CCCN(C2Cc3ccccc3C2)C1)C(=O)[C@@H]1N=C(c2ccccc2O)CS1 (mixture of isomers) | 72.9 | 229 |  |
| CN(C)CCN(CC1CCCN(C2Cc3ccccc3C2)C1)C(=O)c1csc(Nc2ccccn2)n1 (racemic) | > 80 | 635 |  |
| CN(C)CCN(CC1CCCN(Cc2csc(Nc3ccccn3)n2)C1)C(=O)c1ccc2ccccc2c1 (racemic) | > 80 | 103 |  |
| COCCN(CC1CCCN(C2Cc3ccccc3C2)C1)C(=O)c1ccc2cccnc2c1O (racemic) | > 80 | 266 |  |
| COc1ccc(C(=O)N(CCN(C)C)CC2CCCN(C3Cc4ccccc4C3)C2)cc1 (racemic) | > 80 | 237 |  |
| Cc1c(C)c2c(c(C)c1O)CCC(C)(C(=O)N(CCN(C)C)CC1CCCN(C3Cc4ccccc4C3)C1)O2 (racemic) | > 80 | 6920 |  |
| CN(C)CCN(CC1CCCN(C2Cc3ccccc3C2)C1)C(=O)c1cc2ccccc2oc1=O (racemic) | > 80 | 9.5 |  |
| CN(C)CCN(CC1CCCN(C2Cc3ccccc3C2)C1)C(=O)c1ccc2cccnc2c1O (racemic) | > 80 |  | Activity [5]: Active; Activity [6]: Active; Activity [7]: Active; Activity [8]: Active; Activity [2]: Active; Activity [9]: Active; Activity [10]: Active; CC50 at 48 h [11]: 9550 nM; Activity [12]: Active; Papp A→B at 20 min, 100 µM [13]: 15.1 ×10⁻⁶ cm/s; Activity [14]: Active; Activity [15]: Active; Papp B→A at 20 min, 100 µM [16]: 22.8 ×10⁻⁶ cm/s; inhibition [17]: Active; Activity [18]: inactive |
| CN(C)CCN(CC1CCCN(C2Cc3ccccc3C2)C1)C(=O)c1ccc2c([N+](=O)[O-])ccc(O)c2n1 (racemic) | > 80 | 1610 |  |
| CN(C)CCN(CC1CCCN(C2Cc3ccccc3C2)C1)C(=O)c1cccc(O)c1 (racemic) | > 80 | 2490 |  |
| CN(C)CCN(CC1CCCN(C2Cc3ccccc3C2)C1)C(=O)c1cn2cccc(O)c2n1 (racemic) | > 80 | 135 |  |
| CN(C)CCN(CC1CCCN(C2Cc3ccccc3C2)C1)C(=O)c1ccc(O)cc1O (racemic) | > 80 | 460 |  |
| CN(C)CCN(CC1CCCN(Cc2ccc3cccc(O)c3n2)C1)C(=O)c1ccc2ccccc2c1 (racemic) | > 80 | 48.1 |  |
| CN(C)CCN(CC1CCCN(C2Cc3ccccc3C2)C1)C(=O)/C=C/c1ccc(O)cc1 (racemic) | > 80 | 71 |  |
| CN(C)CCN(CC1CCCN(C2Cc3ccccc3C2)C1)C(=O)c1cc([N+](=O)[O-])c2cccnc2c1O (racemic) | > 80 | 28 |  |
| CN(C)CCN(CC1CCCN(C2Cc3ccccc3C2)C1)C(=O)c1cc(O)c2cccc(O)c2n1 (racemic) | > 80 | 19 |  |
| CN(C)CCN(CC1CCCN(C2Cc3ccccc3C2)C1)C(=O)c1ccc(O)nc1 (racemic) | > 80 | 21000 |  |
| CN(C)CCN(CC1CCCN(C2Cc3ccccc3C2)C1)C(=O)c1ccc2cccc(O)c2n1 (racemic) | 75.8 | 11.1 | Activity [5]: Active; selectivity ratio [19]: > 700; Ki [20]: 1.09 nM; Activity [6]: Active; Activity [7]: Active; Activity [8]: Active; efflux ratio at 20 min, 100 µM [21]: 1.6; Activity [2]: Active; Activity [9]: Active; CC50 at 48 h [11]: 9700 nM; Papp A→B at 20 min, 100 µM [13]: 21.5 ×10⁻⁶ cm/s; Activity [15]: Active; Papp B→A at 20 min, 100 µM [16]: 35.1 ×10⁻⁶ cm/s; inhibition [17]: Active; Activity [18]: Active |
| CN(C)CCN(CC1CCCN(C2Cc3ccccc3C2)C1)C(=O)c1ccc(O)cc1 (racemic) | > 80 | 1790 |  |
